According to patent publication US20250089709A1, “CALCIUM PHOSPHATE NANOPARTICLES LOADED WITH JASMONATE TO INDUCE EFFICIENT PLANT DEFENCE RESPONSES” (UNIVERSIDAD DE GRANADA, priority 2021, published 2025):
≈ marks a conversion by molar mass, not a printed value. Read-outs that look alike come from different tables or passages of the source.

Key:
B16-F10 cell line [1] = test: In vitro cytotoxicity assay (MTS); assay type: cell-based; details: Mus musculus, 48 h, B16-F10 cells, 2 days incubation, read-out: IC50 (half inhibitory concentration, cell viability)
Description: Mouse skin melanoma (B16-F10, ATCC CRL-6322) cell line was purchased from the Cell Bank of CIC-UGR. B16-F10 cells were expanded in Eagle's minimum essential medium (EMEM) with Earle's balanced salt solution (EBSS) supplemented with 2 mM glutamine, and 10% foetal bovine serum (FBS), 1% nonessential amino acids (NEAA) and 1 mM sodium pyruvate (NaP) at 37° C. in a humidified atmosphere of 5% CO2.
Cells were detached from culture flasks by trypsinization, centrifuged and resuspended. Cell number and viability were assessed with the trypan-blue dye exclusion test. Then, 1.0·10^4 cells/well were seeded in a 96 flat transparent well and incubated at 37° C. in a humidified atmosphere of 5% CO2. […] After 2 days incubation, cell viability was evaluated by MTS assay using CellTiter 96® AQueous One Solution Reagent (Promega, Madison, WI) according to the manufacturer's instructions. Briefly, 20 μL of AQueous One Solution Reagent was added to each well and after 2 h of incubation, the absorbance at 490 nm was measured with a spectrophotometer (Infinite® 200 PRO NanoQuant, CIC-UGR). […] Each experiment was done in triplicate.
(§1) Statistical comparisons were analysed with GraphPad Prism software (version 6.0) using one-way or two-way ANOVA and Bonferroni's post hoc test. […] The half inhibitory concentrations (IC50) were calculated by the Graph Pad Prism, using the dose-response sigmoidal curves, p<0.05.

[2] = In vitro nano-MeJ protection assays (drops at 50° C., UV-Vis and Raman); assay type: physicochemical; details: dried drops after 24 hours at 50° C.
Description: Both of them were kept at 50° C. during 24 h. At scheduled times, the drops were observed using an iScope (Euromex) microscope, in bright field mode and under 40× objective. After 24 hours, the remained samples were analysed by Raman Spectroscopy (JASCO NRS-5100, Jasco International Co. Ltd, Japan) from CIC-UGR. The excitation line was provided by a diode laser emitting at a wavelength of 785 nm. The detector used is a Peltier cooled charge-couple device (CCD, 1024×256 pixels). Before the measurement, the Raman shift of the spectrometer was calibrated using the 520.7 cm-1 peak of crystalline silicon as standard. Each spectrum corresponds to the average of 3 acquisitions of 100 s each. The spectra were linearly base-line corrected for clarity. The same experiment was carried out by depositing on a crystallizer 30 drops of 100 μL of each sample to determine the ratio of protection. […] Then, the sample was centrifuged (12000 rpm, 10 minutes) to remove the nanoparticles before UV-Vis measurements. The ratio of protection (%) was calculated as MeJfinal/MeJinicial×100. Each test was performed in triplicates.

[3] = test system: Monastrell (Vitis vinifera L.) grapevines; test: In vivo field experiments on vineyards, stilbene analysis in wines; details: for total stilbene concentration in wines: two applications
Description: The experiments were conducted in a randomized block design, in which five treatments were applied to three replicates, using 10 vines for each replication. Monastrell (Vitis vinifera L.) grapevines from experimental vineyards located in Cehegin (Murcia, Spain): were sprayed with five treatments, in order to evaluate nano-MeJ efficiency in the field. […] 200 mL of the product was foliarly applied to each plant at veraison. A second application was performed after 7 days. Then, when grapes reached their optimal maturity they were harvested and transported to the winery for winemaking. Vinifications were made in triplicate in 50-L stainless steel tanks using 50 kg of grapes, which were destemmed, crushed, and sulfited (8 g SO2/100 kg). Total acidity was corrected to 5.5 g/L with tartaric acid, and selected yeasts were added (Uvaferm VRB, Lallemand, 25 g/hL). The fermentative pomace contact period was 10 days during which the cap was punched down twice a day, and the temperature and must density were recorded. At the end of alcoholic fermentation, wines were pressed at 1.5 bars in a 75 L tank membrane press and packed in bag-in-box for further analysis.
The extraction method used was described by Guerrero et al. with some modifications. Briefly, 5 mL of wine were extracted with 5 mL of diethyl ether to which 25 μL of internal standard (Trans-4-Hydroxistilbene, 98%) were added. Samples were homogeneized with an Ultraturrax T-25 (Jankel Adnand Kunkel, IKA-Labortechnick, Germany) and stirred at 9600 rpm for 1 minute. […]
Stilbenes were identified and quantified by HPLC. Samples were analysed using a Waters2695 system equipped with a mass detector (Acquity QDA Waters). […] Stilbenes were quantified at 320 nm using trans-resveratrol, trans-piceid, piceatannol and ε-viniferin as external standards.
as §1

B16-F10 cell line [4] = details: read-out: MeJ needed to decrease cell viability in a half; same cell line (B16-F10), previous results; cited from earlier work
[5] = cited from earlier work
Monastrell grapevine = details: cited from earlier work

SMILES: CC/C=C\CC1C(=O)CCC1CC(=O)OC (racemic) [MeJ, methyl jasmonate]
- IC50 (B16-F10 cell line [1]): 2200 µM
- Raman micro-analysis for MeJ signals [2]: did not show signals assignable to MeJ
- minimum concentration to observe important effects on stilbenes, elicitor conventionally applied ([3]; foliar application): 10 mM
- total stilbene concentration in wines ([3]; foliar spray 5 mM MeJ (MeJ5) at veraison): not enough to produce the same enhancement in stilbene concentration
- total stilbene concentration in wines ([3]; foliar spray 10 mM MeJ (MeJ10) at veraison, vs non-treated control): significant (p<0.001) increase
- IC50 (B16-F10 cell line [4]): 2600 µM
- solubility in water [5]: 340 µg/mL (≈ 1520 µM)
- total stilbenes in wines (Monastrell grapevine; foliar application of 10 mM, vs non-treated (control) plants): significant increase
- foliar concentration needed to promote stilbene production in grapes and wines (Monastrell grapevine; previous field experiments): 10 mM
